Reference: patent US20170022171A1, “2,5-DISUBSTITUTED CYCLOPENTANECARBOXYLIC ACIDS AND THEIR USE” (Bayer Pharma Aktiengesellschaft, priority 2014, published 2017)

System: rat hepatocytes
Experiment: Hepatocyte assay for determination of metabolic stability
Assay type: in vitro ADME
Conditions: after incubation with rat hepatocytes
Description: The metabolic stability of test compounds towards hepatocytes is determined by incubating the compounds at low concentrations (preferably below or around 1 μM) and at low cell counts (preferably at 1*10^6 cells/ml) in order to ensure maximum linearity of kinetic conditions in the experiment. Seven samples from the incubation solution are taken for the LC-MS analysis within a fixed time pattern, in order to determine the half-life (i.e. the degradation) of the particular compound. This half life is used to calculate various “Clearance” parameters (CL) and “Fmax” values (see below).
The CL and Fmax values are a measure of the phase 1 and phase 2 metabolism of the compounds in the hepatocytes. In order to minimize the influence of the organic solvent on the enzymes in the incubation batches, the concentration thereof is generally limited to 1% (acetonitrile) or 0.1% (DMSO).
For all species and breeds, a hepatocyte cell count in the liver of 1.1*10^8 cells/g of liver is expected.
The parameters calculated and the meanings thereof are: • Fmax well-stirred [%] maximum possible bioavailability after oral administration • Calculation: (1−CLblood well-stirred/QH)*100 • CLblood well-stirred [L/(h*kg)] calculated blood clearance (well-stirred model) • Calculation: (QH*CL′intrinsic)/(QH+CL′intrinsic) • CL′intrinsic[ml/(min*kg)] maximum ability of the liver (of the hepatocytes) to metabolize a compound (assuming that the liver blood flow is not rate-limiting) • Calculation: CL′intrinsic, apparent*species-specific hepatocyte count [1.1*10^8/g liver]*species-specific liver weight [g/kg] • CL′intrinsic, apparent[ml/(min*mg)] normalizes the elimination constant by dividing it by the hepatocyte cell count x used (x*10^6/ml) • Calculation: ke1[1/min]/(cell count [x*10^6]/incubation volume [ml]) • (QH=species-specific liver blood flow).

- CLblood (calculated blood clearance, well-stirred): 18.7 mL/min/kg
- Fmax (maximum possible bioavailability after oral administration, well-stirred): 73.3%
Structure (SMILES): O=C(O)[C@H]1[C@H](Cn2nnc3ccc(C(F)(F)F)cc3c2=O)CC[C@@H]1C(=O)c1ccc(OCc2ccccc2)cc1 (racemic) [Example 11, (+/−)-(1RS,2RS,5SR)-2-[4-(Benzyloxy)benzoyl]-5-{[4-oxo-6-(trifluoromethyl)-1,2,3-benzotriazin-3(4H)-yl]methyl}cyclopentanecarboxylic acid]
